Earlier results as cited in US11660346B2, “Engineered microparticles for macromolecule delivery” (University of Pittsburgh-Of the Commonwealth System of …, priority 2009, dated 2023).

Conditions: parameter for polyanhydride disk prediction, FIG. 10

CAmx (maximum solubility of agent) (aqueous): 2.184 mol/m^3
kdis (intrinsic dissolution rate constant): 0.046 mol/m^3 s
SMILES: CCCCN1CCCCC1C(=O)Nc1c(C)cccc1C (centres unmarked) [bupivacaine]
